Source: article PMC6095626, “Screening of the Pathogen Box for inhibitors with dual efficacy against Giardia lamblia and Cryptosporidium parvum” (PLoS Neglected Tropical Diseases, 2018)
pEC50: −log10 of the molar value.

How the values were obtained:
[1] = tested on: G. lamblia trophozoites (luciferase expressing, WBC6); experiment: microbe, parasite or virus in culture; type: cell-based, Giardia lamblia; settings: for Giardia (16 uM) Mean % inhibition: initial Pathogen Box screen, single concentration 16 µM, inhibition compared to DMSO wells; for G. lamblia inhibition of parasite growth in the initial screen: 16 μM, 24 hours; for inhibition at 16 µM: Giardia duodenalis, read-out: Giardia (16 uM) Mean % inhibition
Protocol: Trophozoites were harvested by chilling cultures on ice for 30 minutes and plated by adding 150 μL per well at a concentration of 250,000 cells/mL. Metronidazole (Sigma, St. Louis, MO) was used as a control and was serially diluted 1:2 from 40 μM to 0.04 μM and 150 μL was added to the 150 μL of the G. lamblia trophozoites. Plates were covered in plastic low-evaporation lids, sealed in individual anaerobic BD GasPak Bio-Bags (Becton Dickinson, San Jose, CA) and incubated at 37 °C for 24 hours. […] A duplicate plate was concurrently set up and assayed using a MOXI Z Mini Automated Cell Counter Kit (Orflo, Ketchum, ID). Results obtained from the bioluminescence assay and the MOXI counter data were compared to evaluate their correlation to each another. Albendazole (Sigma, St. Louis, MO), an alternative giardiasis therapeutic, was assayed in concentrations from 4 μM to 0.004 μM with only the luciferase expressing G. lamblia cells. […]

[2] = tested on: C. parvum (UGA1 Nluc expressing strain in HCT-8 cells); experiment: microbe, parasite or virus in culture; type: cell-based, Cryptosporidium parvum; settings: for Crypto (10 uM) Mean % inhibition: initial Pathogen Box screen, single concentration 10 µM, inhibition compared to DMSO wells; for inhibition at 10 µM: Cryptosporidium parvum, HCT-8, read-out: Crypto (10 uM) Mean % inhibition
Protocol: Growth inhibition and EC50 determination assays were performed using UGA1 Nluc expressing C. parvum strain in HCT-8 cells (ATCC^©, Manassas, VA) as previously described. HCT-8 cells were inoculated onto 96-well plates and allowed to grow for 48 hours to 90–100% confluence and then treated with single concentration (10 μM) or serially diluted compounds prior to oocyst infection. C. parvum oocysts were incubated for 10 minutes in 10% bleach at room temperature and then washed with DPBS. […] The cell monolayers were lysed for 1 hour before adding Nano-Glo® luciferase reagent (Promega, Madison, WI), and measuring relative luminescence units (RLU) in an EnVision Plate Reader (Perkin Elmer, Waltham, MA). Several parameters, including reproducibility and reliability, were previously evaluated to optimize this assay for low and high-throughput (HTP) screening of small molecule compounds against C. parvum. EC50 values were calculated using Prism 7 software (GraphPad Software, San Diego, CA).
C. parvum screening against the Pathogen Box compounds was performed as previously described starting at a concentration of 10 μM [23].

O[C@@H](c1cc(C(F)(F)F)nc2c(C(F)(F)F)cccc12)[C@H]1CCCCN1 [MMV000016]
Giardia (16 uM) Mean % inhibition [1]: 16%
Crypto (10 uM) Mean % inhibition [2]: 77%

COc1cc(N[C@@H](C)CCCN)c2ncccc2c1 [MMV000023]
Giardia (16 uM) Mean % inhibition [1]: 47%
Crypto (10 uM) Mean % inhibition [2]: 14%

N=C(N)c1ccc(OCCCCCOc2ccc(C(=N)N)cc2)cc1 [MMV000062, pentamidine, reference compound]
G. lamblia inhibition of parasite growth in the initial screen [1]: did not show up in the screen
inhibition at 16 µM [1]: 9%
inhibition at 10 µM [2]: 50%

CCN(CC)CCCCCCNc1cc(OC)cc2c(C)ccnc12 [MMV000063]
Giardia (16 uM) Mean % inhibition [1]: 26%
Crypto (10 uM) Mean % inhibition [2]: 62%

O=S(=O)(c1ccc(Cl)cc1)N1CCN(C(=S)NCc2ccco2)CC1 [MMV000858]
Giardia (16 uM) Mean % inhibition [1]: 3%
Crypto (10 uM) Mean % inhibition [2]: 41%

COc1cccc2c(C)nc(N=C(N)N)nc12 [MMV000907]
Giardia (16 uM) Mean % inhibition [1]: 68%
Crypto (10 uM) Mean % inhibition [2]: 67%

CCCS(=O)(=O)N1CCC(CO)(Cc2ccccc2C(F)(F)F)CC1 [MMV001059]
Giardia (16 uM) Mean % inhibition [1]: 10%
Crypto (10 uM) Mean % inhibition [2]: X* (Mean or standard deviation are negative but not significantly different from the control to be a growth promoter)

COC(=O)C1=C(C)NC(C)=C(C(=O)OC(C)C)[C@H]1c1cccc2nonc12 [MMV001493]
Giardia (16 uM) Mean % inhibition [1]: 25%
Crypto (10 uM) Mean % inhibition [2]: 53%

CNCC[C@H](Oc1ccc(C(F)(F)F)cc1)c1ccccc1 [MMV001561]
Giardia (16 uM) Mean % inhibition [1]: 15%
Crypto (10 uM) Mean % inhibition [2]: X* (Mean or standard deviation are negative but not significantly different from the control to be a growth promoter)

NCCC[C@@](N)(C(=O)O)C(F)F [MMV001625]
Giardia (16 uM) Mean % inhibition [1]: 16%
Crypto (10 uM) Mean % inhibition [2]: 36%

O=C(C1CCCCC1)N1CC(=O)N2CCc3ccccc3[C@@H]2C1 [MMV002529]
Giardia (16 uM) Mean % inhibition [1]: 16%
Crypto (10 uM) Mean % inhibition [2]: 55%

CCN(CC)C(=O)N1CCN(C)CC1 [MMV002816]
Giardia (16 uM) Mean % inhibition [1]: 29%
Crypto (10 uM) Mean % inhibition [2]: X* (Mean or standard deviation are negative but not significantly different from the control to be a growth promoter)

COC(=O)Nc1nc2ccc(C(=O)c3ccccc3)cc2[nH]1 [MMV003152, mebendazole, reference compound]
G. lamblia inhibition of parasite growth in the initial screen [1]: did not show up in the screen
inhibition at 16 µM [1]: 26%
inhibition at 10 µM [2]: 91%

CN1CCCN(C(c2ccccc2)c2ccc(Cl)cc2)CC1 (stereo not drawn) [MMV004168]
Giardia (16 uM) Mean % inhibition [1]: 27%
Crypto (10 uM) Mean % inhibition [2]: 56%

O=C1Nc2ccc(Br)cc2C12NCCc1c2[nH]c2ccccc12 (stereo not drawn) [MMV006239]
Giardia (16 uM) Mean % inhibition [1]: X* (Mean or standard deviation are negative but not significantly different from the control to be a growth promoter)
Crypto (10 uM) Mean % inhibition [2]: 53%

Cc1ccc2[nH]c3c(NCCN(C)C)ncnc3c2c1 [MMV006372]
Giardia (16 uM) Mean % inhibition [1]: 21%
Crypto (10 uM) Mean % inhibition [2]: 64%

COc1cc2ncnc(NC3CCN(Cc4ccccc4)CC3)c2cc1OC [MMV006741]
Giardia (16 uM) Mean % inhibition [1]: 35%
Crypto (10 uM) Mean % inhibition [2]: 45%

Cc1cc(Cl)c(S(=O)(=O)N2CCCC2)cc1OCC(=O)NC1CCCCC1 [MMV006833]
Giardia (16 uM) Mean % inhibition [1]: 17%
Crypto (10 uM) Mean % inhibition [2]: 70%

CN(C)c1cc(NC(=O)Nc2ccccc2)c2ccccc2n1 [MMV006901]
Giardia (16 uM) Mean % inhibition [1]: 49%
Crypto (10 uM) Mean % inhibition [2]: X* (Mean or standard deviation are negative but not significantly different from the control to be a growth promoter)

Cc1cc(NC(=O)c2ccc(S(=O)(=O)N(Cc3ccccc3)C(C)C)cc2)no1 [MMV007133]
Giardia (16 uM) Mean % inhibition [1]: 11%
Crypto (10 uM) Mean % inhibition [2]: X* (Mean or standard deviation are negative but not significantly different from the control to be a growth promoter)

COc1cc(OC)cc(C(=O)NCC2Cc3cc(Cl)cc(-c4ccncc4)c3O2)c1 (stereo not drawn) [MMV007471]
Giardia (16 uM) Mean % inhibition [1]: 23%
Crypto (10 uM) Mean % inhibition [2]: 50%

Cc1cc(C)n(-c2ccc(NC(=O)C3CCN(Cc4cnc(C)s4)CC3)cc2)n1 [MMV007625]
Giardia (16 uM) Mean % inhibition [1]: 27%
Crypto (10 uM) Mean % inhibition [2]: X* (Mean or standard deviation are negative but not significantly different from the control to be a growth promoter)

CCOc1ccc(-c2nc(NC(=O)CS(=O)(=O)c3ccccc3)sc2C)cc1 [MMV007638]
Giardia (16 uM) Mean % inhibition [1]: 8%
Crypto (10 uM) Mean % inhibition [2]: X* (Mean or standard deviation are negative but not significantly different from the control to be a growth promoter)

O=C(NC1CC1)c1ccc(CSCc2ccccc2Cl)o1 [MMV007803]
Giardia (16 uM) Mean % inhibition [1]: 6%
Crypto (10 uM) Mean % inhibition [2]: X* (Mean or standard deviation are negative but not significantly different from the control to be a growth promoter)

Nc1ccc(C(=O)Nc2ccc(-c3nc4ccccc4o3)cc2)cc1 [MMV007920]
Giardia (16 uM) Mean % inhibition [1]: 60%
Crypto (10 uM) Mean % inhibition [2]: 63%

COc1ccc(CN2CCOc3ccc(C(C)(O)CN(C)C)cc3C2)cc1C (stereo not drawn) [MMV008439]
Giardia (16 uM) Mean % inhibition [1]: 35%
Crypto (10 uM) Mean % inhibition [2]: 68%

Cc1cc(C(=O)Nc2cnn(Cc3ccc(Cl)cc3Cl)c2)no1 [MMV009054]
Giardia (16 uM) Mean % inhibition [1]: X* (Mean or standard deviation are negative but not significantly different from the control to be a growth promoter)
Crypto (10 uM) Mean % inhibition [2]: 59%

O=C(C1CCN(c2nnnn2-c2ccccc2)CC1)N1CCc2ccccc2C1 [MMV009135]
Giardia (16 uM) Mean % inhibition [1]: X* (Mean or standard deviation are negative but not significantly different from the control to be a growth promoter)
Crypto (10 uM) Mean % inhibition [2]: 56%

COc1ccc(-c2cnc3ccc(NCc4ccc(S(N)(=O)=O)cc4)nn23)cn1 [MMV010545]
Giardia (16 uM) Mean % inhibition [1]: X* (Mean or standard deviation are negative but not significantly different from the control to be a growth promoter)
Crypto (10 uM) Mean % inhibition [2]: X* (Mean or standard deviation are negative but not significantly different from the control to be a growth promoter)

c1csc(-c2cnc3sc(NCC4CCOCC4)nn23)c1 [MMV010764]
Giardia (16 uM) Mean % inhibition [1]: X* (Mean or standard deviation are negative but not significantly different from the control to be a growth promoter)
Crypto (10 uM) Mean % inhibition [2]: X* (Mean or standard deviation are negative but not significantly different from the control to be a growth promoter)

Cc1cc(Nc2ccc(C(F)(F)F)cc2)n2ccnc2n1 [MMV011229]
Giardia (16 uM) Mean % inhibition [1]: 35%
Crypto (10 uM) Mean % inhibition [2]: X* (Mean or standard deviation are negative but not significantly different from the control to be a growth promoter)

COc1ccc(CCN2CCC(NCc3cccc(N(C)C)c3)CC2)cc1 [MMV011511]
Giardia (16 uM) Mean % inhibition [1]: 73%
Crypto (10 uM) Mean % inhibition [2]: X* (Mean or standard deviation are negative but not significantly different from the control to be a growth promoter)

NCC(=O)N1CCn2c(nc(-c3ccccc3)c2Nc2ccc3c(c2)OCO3)C1 [MMV011691]
Giardia (16 uM) Mean % inhibition [1]: 20%
Crypto (10 uM) Mean % inhibition [2]: X* (Mean or standard deviation are negative but not significantly different from the control to be a growth promoter)

FC(F)(F)c1cnc(Sc2nnc(-c3ccncc3)o2)c(Cl)c1 [MMV011765]
Giardia (16 uM) Mean % inhibition [1]: 53%
Crypto (10 uM) Mean % inhibition [2]: 89%

Cc1ccc(NC(=O)c2nc[nH]c2C(=O)Nc2nc3ccccc3[nH]2)c(C)c1 [MMV011903]
Giardia (16 uM) Mean % inhibition [1]: 21%
Crypto (10 uM) Mean % inhibition [2]: 62%

Cc1nc2ccccn2c1C(=O)NCc1ccc(Cl)cc1 [MMV012074]
Giardia (16 uM) Mean % inhibition [1]: 14%
Crypto (10 uM) Mean % inhibition [2]: 57%

Cc1cc(Nc2ccncc2)n2nc(C)c(-c3ccccc3Cl)c2n1 [MMV016136]
Giardia (16 uM) Mean % inhibition [1]: X* (Mean or standard deviation are negative but not significantly different from the control to be a growth promoter)
Crypto (10 uM) Mean % inhibition [2]: 46%

Cc1ccc(-c2cc(C(=O)Nc3cccnc3)c3cc(Br)ccc3n2)cc1 [MMV016838]
Giardia (16 uM) Mean % inhibition [1]: 63%
Crypto (10 uM) Mean % inhibition [2]: 42%

Cc1cc(C)n2nc(C(=O)Nc3cc(C(F)(F)F)ccc3N3CCOCC3)nc2n1 [MMV019087]
Giardia (16 uM) Mean % inhibition [1]: X* (Mean or standard deviation are negative but not significantly different from the control to be a growth promoter)
Crypto (10 uM) Mean % inhibition [2]: 35%

Cc1ccc2c(c1C)NC(=O)C21NN=C(c2ccccc2)S1 (stereo not drawn) [MMV019189]
Giardia (16 uM) Mean % inhibition [1]: X* (Mean or standard deviation are negative but not significantly different from the control to be a growth promoter)
C. parvum cell growth inhibition in the initial screen ([2]; 10 μM, 48 hours): ≥ 95%
pEC50 ([2]; Nluc C. parvum in HCT-8 cells, 48 hours, read-out: C. parvum EC50): 5.60
Crypto (10 uM) Mean % inhibition [2]: 95%
